# ChEMBL document CHEMBL1926510, “Naphthoquinone-like polyketide isolated from Streptomyces sp. RI-77 and its predicted biosynthetic pathway” (J Nat Prod, 2011)
# Activity calls are given as the source filed them. No cut-off for these calls is given here.
# Key:
# [1] = system: Micrococcus luteus; experiment: Antibacterial activity Micrococcus luteus; type: functional, organism-based
# [2] = Antioxidant activity assessed as DPPH radicle scavenging activity after 30 mins by spectrometric analysis; type: functional
# [3] = system: Escherichia coli; experiment: Antibacterial activity Escherichia coli; type: functional, organism-based
IC50 [2] [µM],Compound,Activity [1],Activity [3]
165,COc1cc(O)c2c(c1O)C(=O)[C@@]13C[C@H]4[C@@H](C[C@H]1C(C)=O)OC(=O)[C@@]4(OC)C(O)=C3C2=O,inactive,inactive
28,Cc1c(C)c2c(c(C)c1O)CC[C@@](C)(CCC[C@H](C)CCC[C@H](C)CCCC(C)C)O2 [ALPHA-TOCOPHEROL],–,–
